Reference: PMC10288352 (IET Nanobiotechnology, 2023)
Where two headings read alike, the source gives them in different places.

Experiments:
[1] = test system: PO-induced hyperuricemia mouse model; assay: PO-induced hyperuricemic mouse model, serum uric acid; assay type: in vivo, ICR mice; settings: mice
Description: ICR mice weighing 25 ± 2 g were purchased from Wushi Dongwu Co., LTD (Fujian, China). The protocol for animal experiments (#202030) was approved by the Animal Use and Care Committee of Putian University. To establish a hyperuricemic mouse model, we followed our previously reported method, which involved intraperitoneal injection of PO at a dose of 250 mg/kg. […] Mice in all groups except the CG were given PO to raise serum uric acid levels, while the CG mice were given 1 ml of 0.9% NaCl. […] After 2 hours, blood was obtained from the tail vein and was centrifuged at 4000 rpm for 8 min. The serum obtained was kept at −80 °C for the following assay.

Xanthine oxidase (XO) [2] = biological target: T1, Xanthine oxidase (XO) (Bos taurus, UniProt P80457); assay: Determination of xanthine oxidase activity (UV, 290 nm); assay type: biochemical, cow
Description: Xanthine oxidase activity was determined following a previously reported method [20]. The test compounds were dissolved in DMSO, and the resulting solutions were appropriately diluted for the assay. Xanthine oxidase and xanthine solutions with concentrations of 0.04 U/mL and 0.1 mmol/L, respectively, were prepared using 0.2 mol/L phosphate buffered solution (PBS, pH 7.4) as the solvent. An aliquot of the test solution (0.1 ml) with various concentrations was added separately to XO solution (0.2 ml). The resulting solution was well mixed and incubated for 5 min at 298 K. Then, the substrate (xanthine) solution was pipetted into the mixture to initiate the enzymatic reaction, and the OD value of the resulting solution was recorded every 60 s at 290 nm using a UV spectrometer (UV 2550, SHIMADZU) at 298 K. Xanthine oxidase activity was determined without adding an inhibitor and was considered 100%. […] Each test was performed three times (n = 3). The equation for calculating the relative activity (RA) of XO is as follows: RA (%) = R i/R c × 100%, where R i and R c represent the reaction rates of the solution with and without inhibitors, respectively. The IC50 value was calculated based on the plot of RA versus inhibitor concentration.

rats = settings: cited from earlier work
xanthine oxidase (XO) [3] = biological target: xanthine oxidase (XO); parameters: method as in PMID 2393948; settings: read-out: IC50 (XO inhibition); cited from earlier work
xanthine oxidase (XO) [4] = biological target: xanthine oxidase (XO); parameters: method as in doi:10.2991/efood.k.190802.004; settings: read-out: IC50 (XO inhibition); cited from earlier work
xanthine oxidase (XO) [5] = biological target: xanthine oxidase (XO); parameters: method as in PMID 15234783; settings: read-out: IC50 (XO inhibition); cited from earlier work
[6] = cited from earlier work
Xanthine oxidase (XO) [7] = biological target: T1, Xanthine oxidase (XO); assay: Fluorescence titration (quenching) assay; assay type: binding, cow; settings: for Kq (quenching rate constant): τ0 10^−8 s
Description: An aliquot of XO solution (2.0 ml, 0.04 U/mL) was placed in a quartz cuvette (1 cm) and titrated with 0.1 ml EA solution (0.1 mmol/L) each time. The mixture was then placed in a thermostatic bath, and after 5 min, fluorescence spectra ranging from 290 to 500 nm (excitation: 280 nm) were recorded at 298, 304 and 310 K using the FS5 spectrofluorometer (Edinburgh Instruments, England). The fluorescence background was corrected by subtracting the PBS blank. Additionally, to account for EA's UV absorption, all fluorescence data were corrected according to the following equation: (4) Fc=Fme^A1+A2/2
Here, F m and F c represent the measured and corrected fluorescence, respectively, and A1 and A2 denote EA UV absorbance at 280 nm (excitation wavelength) and 404 nm (emission wavelength), respectively.
The Stern‐Volmer equation shown below was used to distinguish the quenching mechanism. (5) F0/F=1+Kqτ0[Q]=1+Ksv[Q]
The fluorescence intensities with and without EA are indicated by the symbols F and F 0, respectively. The quenching rate constant of the biological macromolecule is represented by K q . The average lifetime of fluorophore is represented by the symbol τ0 (10^−8 s). K SV is the dynamic quenching constant of Stern–Volmer; [Q] is the concentration of EA. […] Then K SV values at 298, 304 and 310 K were calculated to be 1.881 × 10^5, 1.661 × 10^5, and 1.455 × 10^5 L/mol, respectively, using the Stern‐Volmer equation. […] Similarly, the K q values at 298, 304 and 310 K were determined to be 1.881 × 10^13, 1.661 × 10^13, and 1.455 × 10^13 L/(mol·s), respectively.
(6) logF0−F/F=logKa+nlog[Q]
To determine the interaction forces between EA and XO, such as hydrogen bonding, hydrophobic interaction, van der Waals force, and electrostatic force, thermodynamic parameters including […], and Gibbs free energy (△G) were analysed using the Van't Hoff Equation (7) and Gibbs‐Helmholtz Equation (8) at different temperatures. The equations are as follows: (7) logKa=−∆H/2.303RT+∆S/2.303R (8) ∆G=∆H−T∆S

Xanthine oxidase (XO) [8] = biological target: T1, Xanthine oxidase (XO); assay: Kinetic analysis of XO inhibition (Lineweaver-Burk); assay type: biochemical, cow
Description: Here, [S] and [I] represent the substrate (xanthine) and inhibitor (EA) concentrations, respectively. The reaction rate and maximum reaction rate are represented by ν and Vmax, respectively. K i and K is indicate the inhibition constants of EA binding with the free XO and XO‐xanthine complex, respectively. The Michaelis‐Menten constant is denoted by the symbol K m . The type of inhibition exerted by EA on XO was determined using Equation (1).

xanthine oxidase (XO) [9] = biological target: xanthine oxidase (XO); parameters: method as in PMID 29567192; settings: fluorescence quenching technology; read-out: IC50 (XO inhibition); cited from earlier work
mice = assay: NOEL estimated for mice from rat value; assay type: in vivo
xanthine oxidase (XO) [10] = settings: read-out: IC50 (XO inhibition); cited from earlier work
[11] = Van't Hoff equation, 298, 304 and 310 K

T1 sequence (P80457 whole entry): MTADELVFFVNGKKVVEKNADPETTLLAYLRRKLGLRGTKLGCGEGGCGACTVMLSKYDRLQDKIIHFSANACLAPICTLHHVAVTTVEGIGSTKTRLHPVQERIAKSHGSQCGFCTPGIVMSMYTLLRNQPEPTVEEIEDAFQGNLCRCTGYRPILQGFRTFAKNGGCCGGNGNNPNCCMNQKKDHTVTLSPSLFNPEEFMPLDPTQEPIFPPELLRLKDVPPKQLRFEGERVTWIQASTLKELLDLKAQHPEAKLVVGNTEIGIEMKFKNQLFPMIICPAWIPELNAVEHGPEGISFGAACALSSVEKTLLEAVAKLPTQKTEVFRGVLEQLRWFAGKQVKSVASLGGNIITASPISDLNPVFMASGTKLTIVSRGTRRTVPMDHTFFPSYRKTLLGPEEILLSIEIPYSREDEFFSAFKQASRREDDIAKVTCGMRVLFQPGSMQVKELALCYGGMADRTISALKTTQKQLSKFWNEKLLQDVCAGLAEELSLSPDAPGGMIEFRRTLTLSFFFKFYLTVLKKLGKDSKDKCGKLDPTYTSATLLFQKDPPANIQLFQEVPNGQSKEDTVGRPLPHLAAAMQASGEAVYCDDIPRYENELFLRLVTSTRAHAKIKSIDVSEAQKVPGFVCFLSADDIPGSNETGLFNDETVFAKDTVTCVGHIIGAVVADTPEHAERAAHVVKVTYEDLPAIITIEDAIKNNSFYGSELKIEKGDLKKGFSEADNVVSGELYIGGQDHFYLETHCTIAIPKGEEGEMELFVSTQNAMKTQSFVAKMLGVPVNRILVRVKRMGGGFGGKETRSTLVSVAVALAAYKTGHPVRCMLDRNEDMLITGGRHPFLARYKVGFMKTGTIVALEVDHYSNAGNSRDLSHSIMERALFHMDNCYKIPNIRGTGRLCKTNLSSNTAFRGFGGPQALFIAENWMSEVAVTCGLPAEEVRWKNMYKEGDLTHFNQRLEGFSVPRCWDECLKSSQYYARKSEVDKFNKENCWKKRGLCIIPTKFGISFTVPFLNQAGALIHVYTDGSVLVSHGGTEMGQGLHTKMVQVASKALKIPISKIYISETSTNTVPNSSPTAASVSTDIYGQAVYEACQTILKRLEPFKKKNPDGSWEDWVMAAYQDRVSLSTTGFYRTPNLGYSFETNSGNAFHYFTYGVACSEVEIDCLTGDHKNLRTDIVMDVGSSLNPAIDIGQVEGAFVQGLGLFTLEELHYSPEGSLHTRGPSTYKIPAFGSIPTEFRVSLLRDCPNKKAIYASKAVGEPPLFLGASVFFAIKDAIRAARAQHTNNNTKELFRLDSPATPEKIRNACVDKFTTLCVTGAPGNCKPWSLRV

Structure (SMILES): Oc1ncnc2[nH]ncc12 [allopurinol, reference compound]
- Serum uric acid ([1]; 20 mg/kg intragastrically after PO 250 mg/kg i.p., MG 6.18 ± 0.18, CG 2.16 ± 0.51): 2.01 ± 0.34 mg/dL

Structure (SMILES): O=c1oc2c(O)c(O)cc3c(=O)oc4c(O)c(O)cc1c4c23 [EA, Ellagic acid]
- Serum uric acid ([1]; 160 mg/kg intragastrically after PO 250 mg/kg i.p., MG 6.18 ± 0.18): 5.09 ± 0.57 mg/dL
- Serum uric acid ([1]; 320 mg/kg intragastrically after PO 250 mg/kg i.p., MG 6.18 ± 0.18): 4.19 ± 0.53 mg/dL
- Serum uric acid ([1]; 480 mg/kg intragastrically after PO 250 mg/kg i.p., MG 6.18 ± 0.18): 2.87 ± 0.41 mg/dL
- IC50 (Xanthine oxidase (XO) [2]; T = 298 K, pH 7.4, [xanthine] = 0.1 mmol/L, [XO] = 0.04 U/mL, read-out: IC50 (XO inhibition)): 22.97 ± 0.12 µM
- Reversibility of XO inhibition (Xanthine oxidase (XO) [2]; plots of ν versus [XO], [xanthine] = 0.1 mmol/L): reversible inhibitor
- Safe dietary supplement dose (rats; rat, in vivo): ≤ 3011 mg/kg/day
- Safe dietary supplement level (rats; rat, in vivo): up to 5%
- no-observed-effect level (NOEL) (rats; rats): 3011 mg/kg/day
- IC50 (xanthine oxidase (XO) [3]): 3.1 µM
- IC50 (xanthine oxidase (XO) [4]): 18 µM
- IC50 (xanthine oxidase (XO) [5]): 71.5 µM
- Bioavailability [6]: very poor
- Permeability [6]: limited
- Solubility [6]: low
- Fluorescence quenching mechanism (Xanthine oxidase (XO) [7]): static quenching
- KSV (Stern-Volmer dynamic quenching constant) (Xanthine oxidase (XO) [7]; 298 K): 188100 L/mol
- Ksv (Xanthine oxidase (XO) [7]; 298 K): 1.881 ± 0.05 ×10^5 L/mol
- n (number of binding sites) (Xanthine oxidase (XO) [7]; 298 K): 1.183 ± 0.02
- △G (Xanthine oxidase (XO) [7]; 298 K): -5.753 ± 0.0669 kcal/mol
- Kq (quenching rate constant) (Xanthine oxidase (XO) [7]; 298 K): 1.881e+13 M⁻¹ s⁻¹
- KSV (Stern-Volmer dynamic quenching constant) (Xanthine oxidase (XO) [7]; 304 K): 166100 L/mol
- Ksv (Xanthine oxidase (XO) [7]; 304 K): 1.661 ± 0.03 ×10^5 L/mol
- n (number of binding sites) (Xanthine oxidase (XO) [7]; 304 K): 1.236 ± 0.04
- △G (Xanthine oxidase (XO) [7]; 304 K): -5.758 ± 0.0765 kcal/mol
- Kq (quenching rate constant) (Xanthine oxidase (XO) [7]; 304 K): 1.661e+13 M⁻¹ s⁻¹
- KSV (Stern-Volmer dynamic quenching constant) (Xanthine oxidase (XO) [7]; 310 K): 145500 L/mol
- Ksv (Xanthine oxidase (XO) [7]; 310 K): 1.455 ± 0.04 ×10^5 L/mol
- n (number of binding sites) (Xanthine oxidase (XO) [7]; 310 K): 1.308 ± 0.02
- △G (Xanthine oxidase (XO) [7]; 310 K): -5.762 ± 0.0813 kcal/mol
- Kq (quenching rate constant) (Xanthine oxidase (XO) [7]; 310 K): 1.455e+13 M⁻¹ s⁻¹
- XO fluorescence intensity decreased to (Xanthine oxidase (XO) [7]; EA […] μmol/L, 404 nm, Ex 280 nm): 14.15%
- △H (Xanthine oxidase (XO) [7]; [11]): -5.514 ± 0.0598 kcal/mol
- △S (Xanthine oxidase (XO) [7]; [11]): 3.36 ± 0.03 J/mol/K
- Type of inhibition on XO (Xanthine oxidase (XO) [8]; Lineweaver-Burk plot): mixed‐type inhibitor
- Kis (inhibition constant, binding with XO-xanthine complex) (Xanthine oxidase (XO) [8]; [XO] = 0.04 U/mL, xanthine 6.25 to 50 μmol/L): 57.24 ± 0.23 µmol/L
- Ki (Xanthine oxidase (XO) [8]; [XO] = 0.04 U/mL, xanthine 6.25 to 50 μmol/L, read-out: Ki (inhibition constant, binding with free XO)): 10.6 ± 0.08 µM
- IC50 (xanthine oxidase (XO) [9]): 6.5 µM
- NOEL, estimated value for mice (mice): 4215 mg/kg/day
- IC50 (xanthine oxidase (XO) [10]): 166 µM
